Measurements as given in patent US9862716B2, “TRKA kinase inhibitors, compositions and methods thereof” (Merck Sharp & Dohme Corp., priority 2014, dated 2018).

Biological target: T1, human TrkA receptor (Homo sapiens, UniProt P04629)
T1 construct: host or cells: U2OS cells (PathHunter cell line)
Test: DiscoverX PathHunter TrkA functional assay (NGF-stimulated U2OS cells)
Format: cell-based
Conditions: U2OS cells expressing human TrkA-PK, Shc1-EA and p75NTR; compound 1 h, then NGF at ~80% of maximal response for 3 h; luminescence

T1 sequence (P04629 33-796): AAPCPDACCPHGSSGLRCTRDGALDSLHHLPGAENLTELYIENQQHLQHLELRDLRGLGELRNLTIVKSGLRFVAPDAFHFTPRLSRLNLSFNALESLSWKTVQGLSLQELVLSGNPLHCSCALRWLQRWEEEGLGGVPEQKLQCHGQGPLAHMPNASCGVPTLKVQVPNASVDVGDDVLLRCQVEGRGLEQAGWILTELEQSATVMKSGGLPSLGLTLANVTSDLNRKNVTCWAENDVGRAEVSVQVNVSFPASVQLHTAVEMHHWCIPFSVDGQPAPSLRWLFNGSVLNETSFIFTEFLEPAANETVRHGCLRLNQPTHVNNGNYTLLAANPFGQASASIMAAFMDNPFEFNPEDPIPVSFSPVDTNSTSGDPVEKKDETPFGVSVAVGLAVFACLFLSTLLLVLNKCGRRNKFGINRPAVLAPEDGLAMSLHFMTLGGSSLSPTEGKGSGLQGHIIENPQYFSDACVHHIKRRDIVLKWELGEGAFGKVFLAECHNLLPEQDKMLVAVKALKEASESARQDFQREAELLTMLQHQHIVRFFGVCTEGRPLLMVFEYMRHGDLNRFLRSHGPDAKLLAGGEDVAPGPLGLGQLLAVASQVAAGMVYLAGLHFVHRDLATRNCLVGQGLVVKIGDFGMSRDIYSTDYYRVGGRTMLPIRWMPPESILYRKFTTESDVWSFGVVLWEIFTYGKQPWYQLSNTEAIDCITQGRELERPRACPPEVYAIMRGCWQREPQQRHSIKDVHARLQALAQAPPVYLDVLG

IC50 [nM]	SMILES
1.4	O=C(Nc1c(-c2ccccc2)nc2ccccn12)c1cc(-c2ncccn2)c(C(F)(F)F)cc1F [Compound 105, 2-fluoro-N-(2-phenylimidazo[1,2-a]pyridin-3-yl)-5-pyrimidin-2-yl-4-(trifluoromethyl) benzamide]
1920	O=C(Nc1c(-c2ccno2)nc2ccccn12)c1ccc(C(F)(F)F)cc1F [Compound 10, 2-fluoro-N-(2-isoxazol-5-ylimidazo[1,2-a]pyridin-3-yl)-4-(trifluoromethyl) benzamide]
2.6	N#Cc1ccc2[nH]c(-c3ccccc3)c(NC(=O)c3cc(-c4ncccn4)c(C(F)(F)F)cc3F)c2c1 [Compound 86, N-(5-cyano-2-phenyl-1H-indol-3-yl)-2-fluoro-5-pyrimidin-2-yl-4-(trifluoromethyl) benzamide]
12	Cn1ccc(-c2cc(C(=O)Nc3c(-c4ccccc4)nc4ccc(C(O)C(F)(F)F)cn34)ccc2C(F)(F)F)n1 (single isomer, unassigned) [Compound 65, (R or S)-3-(1-methyl-1H-pyrazol-3-yl)-N-[2-phenyl-6-(2,2,2-trifluoro-1-hydroxyethyl)imidazo[1,2-a]pyridin-3-yl]-4-(trifluoromethyl) benzamide]
1.7	COc1ccn2c(NC(=O)c3cc(-c4ncccn4)c(C(F)(F)F)cc3F)c(-c3ccccc3)nc2c1 [Compound 59, 2-fluoro-N-(7-methoxy-2-phenylimidazo[1,2-a]pyridin-3-yl)-5-pyrimidin-2-yl-4-(trifluoromethyl) benzamide]
1.9	CC(O)c1ccc2nc(-c3ccccc3)c(NC(=O)c3ccc(C(F)(F)F)c(-c4ccn(C)n4)c3)n2c1 (single isomer, unassigned) [Compound 48, (R or S)-N-[6-(1-hydroxyethyl)-2-phenylimidazo[1,2-a]pyridin-3-yl]-3-(1-methyl-1H-pyrazol-3-yl)-4-(trifluoromethyl) benzamide]
0.44	Cc1coc(-c2cc(C(=O)Nc3c(-c4ccccc4)nc4cc(C(C)(C)O)ccn34)ccc2C(F)(F)F)n1 [Compound 46, N-[7-(1-hydroxy-1-methylethyl)-2-phenylimidazo[1,2-a]pyridin-3-yl]-3-(4-methyl-1,3-oxazol-2-yl)-4-(trifluoromethyl) benzamide]
0.4	CC(O)c1ccn2c(NC(=O)c3cc(-c4ccn(C)n4)c(C(F)(F)F)cc3F)c(-c3ccccc3)nc2c1 (single isomer, unassigned) [Compound 54, (R or S)-2-fluoro-N-[7-(1-hydroxyethyl)-2-phenylimidazo[1,2-a]pyridin-3-yl]-5-(1-methyl-1H-pyrazol-3-yl)-4-(trifluoromethyl) benzamide]
0.68	Cc1csc(-c2ccn3c(NC(=O)c4ccc(C(F)(F)F)c(-c5ccn(C)n5)c4)c(-c4ccccc4)nc3c2)n1 [Compound 87, 3-(1-methyl-1H-pyrazol-3-yl)-N-[7-(4-methyl-1,3-thiazol-2-yl)-2-phenylimidazo[1,2-a]pyridin-3-yl]-4-(trifluoromethyl) benzamide]
58	O=C(Nc1c(-c2ccccc2)nc2ccccn12)c1ccc(C(F)(F)F)c(-c2nc[nH]n2)c1 [Compound 34, N-(2-phenylimidazo[1,2-a]pyridin-3-yl)-3-(1H-1,2,4-triazol-3-yl)-4-(trifluoromethyl) benzamide]
0.49	Cn1ccc(-c2cc(C(=O)Nc3c(-c4ccccc4)nc4ccccn34)c(F)cc2C(F)(F)F)n1 [Compound 35, 2-fluoro-5-(1-methyl-1H-pyrazol-3-yl)-N-(2-phenylimidazo[1,2-a]pyridin-3-yl)-4-(trifluoromethyl) benzamide]
1.4	CNC(=O)c1ccn2c(NC(=O)c3ccc(C(F)(F)F)c(-c4ccn(C)n4)c3)c(-c3ccccc3)nc2c1 [Compound 25, N-methyl-3-({[3-(1-methyl-1H-pyrazol-3-yl)-4-(trifluoromethyl)phenyl]carbonyl}amino)-2-phenylimidazo[1,2-a]pyridine-7-carboxamide]
5	Cn1ccc(-c2cc(C(=O)Nc3c(-c4ccccc4)nc4cc(N5CCCC5)ccn34)ccc2C(F)(F)F)n1 [Compound 89, 3-(1-methyl-1H-pyrazol-3-yl)-N-(2-phenyl-7-pyrrolidin-1-ylimidazo[1,2-a]pyridin-3-yl)-4-(trifluoromethyl) benzamide]
2.7	O=C(Nc1c(-c2ccccc2)nc2ccccn12)c1cc(-c2cc[nH]n2)c(C(F)(F)F)cc1F [Compound 40, 2-fluoro-N-(2-phenylimidazo[1,2-a]pyridin-3-yl)-5-(1H-pyrazol-3-yl)-4-(trifluoromethyl) benzamide]
4.7	Cc1cc(C(F)(F)F)c(-c2ccn(C)n2)cc1C(=O)Nc1c(-c2ccccc2)nc2cc([C@@H](C)O)ccn12 [Compound 93, N-{7-[(1R)-1-hydroxyethyl]-2-phenylimidazo[1,2-a]pyridin-3-yl}-2-methyl-5-(1-methyl-1H-pyrazol-3-yl)-4-(trifluoromethyl) benzamide]
7.6	Cc1ccnc(-c2cc(C(=O)Nc3c(-c4ccccc4)nc4cc(C(C)(C)O)ccn34)c(Cl)cc2C(F)(F)F)n1 [Compound 71, 2-chloro-N-[7-(1-hydroxy-1-methylethyl)-2-phenylimidazo[1,2-a]pyridin-3-yl]-5-(4-methylpyrimidin-2-yl)-4-(trifluoromethyl) benzamide]
4.5	Cn1ccc(-c2cc(C(=O)Nc3c(-c4ccccc4)nc4ccc(C(O)C(F)(F)F)cn34)ccc2C(F)(F)F)n1 (single isomer, unassigned) [Compound 66, (R or S)-3-(1-methyl-1H-pyrazol-3-yl)-N-[2-phenyl-6-(2,2,2-trifluoro-1-hydroxyethyl)imidazo[1,2-a]pyridin-3-yl]-4-(trifluoromethyl) benzamide]
1000	Cn1ccc(-c2cc(C(=O)Nc3c(-c4ccccc4)nn4cc(C#N)ccc34)c(F)cc2C(F)(F)F)n1 [Compound 111, N-(6-cyano-2-phenylpyrazolo[1,5-a]pyridin-3-yl)-2-fluoro-5-(1-methyl-1H-pyrazol-3-yl)-4-(trifluoromethyl) benzamide]
2	Cn1ccc(-c2cc(C(=O)Nc3c(-c4ccncc4)nc4ccccn34)c(Cl)cc2C(F)(F)F)n1 [Compound 23, 2-chloro-5-(1-methyl-1H-pyrazol-3-yl)-N-(2-pyridin-4-ylimidazo[1,2-a]pyridin-3-yl)-4-(trifluoromethyl) benzamide]
6.5	CC(O)c1ccc2[nH]c(-c3ccccc3)c(NC(=O)c3cc(-c4ncccn4)c(C(F)(F)F)cc3F)c2c1 (single isomer, unassigned) [Compound 94, (R or S)-2-fluoro-N-[5-(1-hydroxyethyl)-2-phenyl-1H-indol-3-yl]-5-pyrimidin-2-yl-4-(trifluoromethyl) benzamide]
1.9	Cn1ccc(-c2cc(C(=O)Nc3c(-c4ccccc4)nc4c(F)cccn34)ccc2C(F)(F)F)n1 [Compound 22, N-(8-fluoro-2-phenylimidazo[1,2-a]pyridin-3-yl)-3-(1-methyl-1H-pyrazol-3-yl)-4-(trifluoromethyl) benzamide]
0.79	C[C@@H](O)c1ccn2c(NC(=O)c3ccc(C(F)(F)F)c(-c4ccn(C)n4)c3)c(-c3ccccc3)nc2c1 (single isomer, unassigned) [Compound 42]
4.3	Cn1ccc(-c2cc(C(=O)Nc3c(-c4ccccc4)nc4cc(CCNS(C)(=O)=O)ccn34)ccc2C(F)(F)F)n1 [Compound 102, 3-(1-methyl-1H-pyrazol-3-yl)-N-(7-{2-[(methylsulfonyl)amino]ethyl}-2-phenylimidazo[1,2-a]pyridin-3-yl)-4-(trifluoromethyl) benzamide]
0.85	CC(O)c1ccn2nc(-c3ccccc3)c(NC(=O)c3cc(-c4ccn(C)n4)c(C(F)(F)F)cc3F)c2c1 (single isomer, unassigned) [Compound 107, (R or S)-2-fluoro-N-[5-(1-hydroxyethyl)-2-phenylpyrazolo[1,5-a]pyridin-3-yl]-5-(1-methyl-1H-pyrazol-3-yl)-4-(trifluoromethyl) benzamide]
1.8	Cn1ccc(-c2cc(C(=O)Nc3c(-c4ccccc4)nc4cc(C(C)(C)O)ccn34)ccc2C(F)(F)F)n1 [Compound 27, N-[7-(1-hydroxy-1-methylethyl)-2-phenylimidazo[1,2-a]pyridin-3-yl]-3-(1-methyl-1H-pyrazol-3-yl)-4-(trifluoromethyl) benzamide]
0.96	C[C@H](O)c1ccn2c(NC(=O)c3ccc(C(F)(F)F)c(-c4ccn(C)n4)c3)c(-c3ccccc3)nc2c1 [Compound 41, N-{7-[(1S)-1-hydroxyethyl]-2-phenylimidazo[1,2-a]pyridin-3-yl}-3-(1-methyl-1H-pyrazol-3-yl)-4-(trifluoromethyl) benzamide]
4.8	CC(O)c1ccn2c(NC(=O)c3ccc(C(F)(F)F)c(-c4ccn(C(F)F)n4)c3)c(-c3ccccc3)nc2c1 (single isomer, unassigned) [Compound 78, (R or S)-3-[1-(difluoromethyl)-1H-pyrazol-3-yl]-N-[7-(1-hydroxyethyl)-2-phenylimidazo[1,2-a]pyridin-3-yl]-4-(trifluoromethyl) benzamide]
0.77	COC(=O)NCc1ccn2c(NC(=O)c3ccc(C(F)(F)F)c(-c4ccn(C)n4)c3)c(-c3ccccc3)nc2c1 [Compound 83, methyl{[3-({[3-(1-methyl-1H-pyrazol-3-yl)-4-(trifluoromethyl)phenyl]carbonyl}amino)-2-phenylimidazo[1,2-a]pyridin-7-yl]methyl}carbamate]
8.8	O=C(Nc1c(-c2ccccc2)nc2ccccn12)c1ccc(C(F)(F)F)c(-c2cc[nH]n2)c1 [Compound 9, N-(2-phenylimidazo[1,2-a]pyridin-3-yl)-3-(1H-pyrazol-3-yl)-4-(trifluoromethyl) benzamide]
1.9	Cn1ccc(-c2cc(C(=O)Nc3c(-c4ccccc4)nc4sccn34)ccc2C(F)(F)F)n1 [Compound 12, 3-(1-methyl-1H-pyrazol-3-yl)-N-(6-phenylimidazo[2,1-b][1,3]thiazol-5-yl)-4-(trifluoromethyl) benzamide]
